In brackets after ≈: the same amount, converted by molar mass.
Tests used:
[1] = system: Soybean; assay: Post-emergent herbicidal test, soybean; assay type: in vivo; parameters: key: 1: no perceptible injury; 2: intermediate degrees of injury based upon the number and extent to which leaves were injured; 3: intermediate degrees of injury based upon the number and extent to which leaves were injured; 4: intermediate degrees of injury based upon the number and extent to which leaves were injured; 5: the plant was dead; details: 2500 parts per million, after ten days
Method: (§1) Suspensions of the test compounds were prepared by dissolving one gram of compound in 50 milliliters of acetone in which had been dissolved 0.1 gram (10 percent of the weight of compound) of an alkylphenoxyethoxyethanol surfactant, as an emulsifying or dispersing agent. The resulting solution was mixed into 160 milliliters of water to give roughly 200 milliliters of a suspension containing the compound in finely divided form. The thus prepared stock suspension contained 0.5 percent by weight of compound. The test concentrations employed in the tests described herein below were obtained by diluting the stock suspension with water. The test procedures were as follows:
(§2) Experiments were also conducted to determine the phytotoxicity of representative compositions with respect to healthy fresh plants. Solutions of the compounds were prepared as described above to provide a concentration of 2500 parts per million of the test compound. The test plants were sprayed in accordance with the procedure described above for the Mite Foliage Spray Test so as to deliver approximately 100 milliliters of test solutions to the leaves of each plant tested. The sprayed plants and controls were set aside for approximately one hour to allow the solutions to dry and were then placed in the greenhouse. After ten days the plants were visually inspected to determine the extent of foliage injury. A rating of 1 indicates no perceptible injury; 5 indicates the plant was dead and ratings of 2, 3 and 4 indicate intermediate degrees of injury based upon the number and extent to which leaves were injured.
(§3) Tests were conducted in accordance with the procedures given at pages 32 to 37 supra. The results are expressed in the same manner as used in Table I, except with respect to miticidal activity. For mite adult and mite egg comparison purposes, results are given in parts per million (ppm) required for a 50 percent kill of mites or eggs, respectively.

[2] = system: Red root pigweed (Amaranthus); assay: Preliminary herbicide seed germination test (pre-emergent), Amaranthus; assay type: in vivo, Amaranthus retroflexus; parameters: key: 5: no seedling emerged; 4: few seedlings emerged and/or very severe stunting; 3: moderate reduction in stand and/or moderate stunting; 2: very slight reduction in stand and/or slight stunting; 1: no injury; seedlings appear no different with respect to stand or growth than untreated controls; details: ten to twelve days after application
Method: as §1
(§4) The following seeds were used in this test:
Red root pigweed--Amaranthus retroflexus
(§5) Two soil-seed mixtures were prepared as follows:
(§6) Each of the above mixtures was rolled separately in 5 gallon containers for approximately one-half hour on ball mill to insure uniform mixing of seeds and soil. For each compound four 3-inch pots were filled with soil to within 11/2 inches of top of pots. To two of these pots were added 70 cc. of Mixture I. To the remaining 2 pots were added 70 cc. of Mixture II. The seed-soil mixture was tamped firmly, and the pots were removed to the green-house and watered lightly. About 2 hours after planting, 25 milliliters of the test formulation were added to one pot containing Mixture I and one pot containing Mixture II. An equal volume of a water solution containing acetone and an emulsifier in the same concentration as the herbicidal mixture but without the candidate herbicide was also added to each of the soil-seed mixtures. These pots are used as check or control units. The test compounds were formulated by diluting the stock suspension with water to obtain the desired concentration of the compound in parts per million of the final formulation. Each compound was tested at the same concentration. […] Ratings were made according to the following designations:
as §3

[3] = system: egg of the two-spotted mite (Tetranychus urticae (Koch)); assay: Mite Ovicide Test (egg); assay type: in vivo; parameters: key to Miticidal, Egg (control rating): A: Excellent Control; B: Partial Control; No Control; details: for LC50: Tetranychus urticae, Table II, read-out: Miticidal LD50, Egg (ppm required for a 50 percent kill of eggs)
Method: as §1
The test organism was the egg of the two-spotted mite (Tetranychus urticae (Koch)), as obtained from adults reared on Tendergreen bean plants under controlled conditions of 80°±5° F. and 50±5 percent relative humidity. Heavily infested leaves from a stock culture were placed on the primary leaves of two bean plants six to eight inches in height growing in a two-and-a-half inch clay pot. Females were allowed to oviposit for a period of 48 hours and then the leaves of the infested plants were dipped in a solution containing 800 parts of tetraethyl pyrophosphate per million parts of water in order to destroy the reproductory forms and thus prevent further egg laying. […] The plants were allowed to dry thoroughly. The test compounds were formulated by diluting the stock suspension with water to give a suspension containing varying amounts of test compound per million parts of final formulation. The potted plants (one pot per compound) were placed on a revolving turntable and sprayed with 100-110 milliliters of test compound formulation by use of a DeVilbis spray gun set at 40 spig. air pressure. This application which lasted 30 seconds, was sufficient to wet the plants to run-off. As a control, 100-110 milliliters of a water solution containing acetone and emulsifier in the same concentrations as the test compound formulation, but containing no test compound, were also sprayed on plants infested with eggs. The sprayed plants were held at 80°±5° F. and 50±5 percent relative humidity for four days, after which a microscopic examination was made of unhatched (dead) and hatched (living) eggs.
In these tests the pesticidal activity of the compounds against mites and mite eggs were rated as follows:
as §3

[4] = system: Corn; assay: Post-emergent herbicidal test, corn; assay type: in vivo; parameters: key: 1: no perceptible injury; 2: intermediate degrees of injury based upon the number and extent to which leaves were injured; 3: intermediate degrees of injury based upon the number and extent to which leaves were injured; 4: intermediate degrees of injury based upon the number and extent to which leaves were injured; 5: the plant was dead; details: 2500 parts per million, after ten days
Method: as §1, §2, §3

[5] = system: Mustard; assay: Preliminary herbicide seed germination test (pre-emergent), mustard; assay type: in vivo, Brassica pincea var. foliosa (Florida broadleaf); parameters: key: 5: no seedling emerged; 4: few seedlings emerged and/or very severe stunting; 3: moderate reduction in stand and/or moderate stunting; 2: very slight reduction in stand and/or slight stunting; 1: no injury; seedlings appear no different with respect to stand or growth than untreated controls; details: ten to twelve days after application
Method: as §1, §4
Mustard--Brassica pincea var. foliosa (Florida broadleaf)
as §5
as §6, with “designations: […]” for “designations:”

[6] = system: Perennial rye grass; assay: Preliminary herbicide seed germination test (pre-emergent), rye grass; assay type: in vivo, Solium perenne; parameters: key: 5: no seedling emerged; 4: few seedlings emerged and/or very severe stunting; 3: moderate reduction in stand and/or moderate stunting; 2: very slight reduction in stand and/or slight stunting; 1: no injury; seedlings appear no different with respect to stand or growth than untreated controls; details: ten to twelve days after application
Method: as §1, §4
Perennial rye grass--Solium perenne
as §5, §6, §3

SMILES | Post-Emergent Herbicidal, Soybean (injury rating) ([1]; Table I) | Pre-emergent Herbicidal, Amaranthus (injury rating) ([2]; Table I) | Miticidal, Egg (control rating) ([3]; Table I, unhatched/hatched eggs four days after spraying) | Post-Emergent Herbicidal, Corn (injury rating) ([4]; Table I) | Pre-emergent Herbicidal, Mustard (injury rating) ([5]; Table I) | Pre-emergent Herbicidal, Rye (injury rating) ([6]; Table I) | Post-Emergent Herbicidal, Soybean (injury rating) ([1]; Table II) | Pre-emergent Herbicidal, Amaranthus (injury rating) ([2]; Table II) | LC50 [3] | Post-Emergent Herbicidal, Corn (injury rating) ([4]; Table II) | Pre-emergent Herbicidal, Mustard (injury rating) ([5]; Table II) | Pre-emergent Herbicidal, Rye (injury rating) ([6]; Table II)
O=C1CCC(=O)C1c1ccccc1Cl [Cl H H H H] | 1 | 1 | C | 2 | 3 | 5 | – | – | – | – | – | –
Cc1ccccc1C1C(=O)c2ccccc2C1=O [Reference I Page 3, Compound 1, reference compound] | – | – | – | – | – | – | 0 | 2 | 500 µg/mL (≈ 2120 µM) | 1 | 1 | 1
Cc1ccc(C)c(C2C(=O)c3ccccc3C2=O)c1 [Reference II Page 146, Compound 6, reference compound] | – | – | – | – | – | – | 0 | 1 | 200 µg/mL (≈ 799 µM) | 1 | 1 | 1
Cc1ccc(C2C(=O)c3ccccc3C2=O)c(C)c1 [Reference II Page 146, Compound 9, reference compound] | – | – | – | – | – | – | 0 | 3 | 110 µg/mL (≈ 439 µM) | 1 | 2 | 4

Source: patent US4338122A, “Biocidal 2-aryl-1,3-cyclopentanedione compounds and alkali metal and ammonium salts thereof” (Union Carbide Corporation, priority 1980, dated 1982)
